In patent publication US20230114107A1, “COMBINATION ANTI-CANCER THERAPIES WITH INDUCERS OF IRON-DEPENDENT CELLULAR DISASSEMBLY” (Flagship Pioneering Innovations V, Inc., priority 2019, published 2023):
“Also recorded” adds a separate entry of the source.

Columns and labels:
[1] = system: A20 B-cell leukemia cells; test: Viability of A20 B-cell leukemia / lymphoma cells after treatment; format: cell-based; details: 24 hours
[2] = system: Jurkat T cell leukemia cells; test: Viability of Jurkat T cell leukemia cells after treatment; format: cell-based; details: various doses, 24 hours; FIG. 5A
[3] = system: Caki-1 renal cell carcinoma cells; test: Viability of Caki-1 renal cell carcinoma cells after treatment; format: cell-based; details: 24 hours
BT-474 Clone 5 cells = test: CellTiter-Glo 2.0 viability of trastuzumab-resistant breast cancer cells; format: cell-based, human; details: graded concentrations, 72 hours; vs non-resistant parental cell line; FIG. 16C
Experimental: (§1) The effects of the ferroptosis inducer RSL3 on cancer cell lines with acquired resistance to standard of care therapeutics was assessed in vitro. Human melanoma cell lines with acquired resistance to BRAF inhibitors (A375-DR or A375-VR) were generated by propagating parental A375 cells in increasing concentrations of dabrafenib or vemurafenib (10 nM-100 μM) over 8 weeks. These resistant melanoma cell lines were further maintained in growth medium containing 5 μM dabrafenib or vemurafenib. BT-474 Clone 5, a human breast cancer cell line that is resistant to trastuzumab, was purchased from American Type Culture Collection (ATCC). 5,000 A375-DR, A375-VR, or BT-474 clone 5 cells were plated per well in flat-bottom 96 well plates and incubated overnight. Cells were then dosed with graded concentrations of RSL3 for 72 hours, and cellular viability was assessed using the CellTiter-Glo 2.0 Cell Viability Assay. The experiments were run in triplicate.

A375-VR cells = test: CellTiter-Glo 2.0 viability of vemurafenib-resistant melanoma cells; format: cell-based, human; details: graded concentrations, 72 hours; vs non-resistant parental cell line; FIG. 16B
Experimental: as §1

A375-DR cells = test: CellTiter-Glo 2.0 viability of dabrafenib-resistant melanoma cells; format: cell-based, human; details: graded concentrations, 72 hours; vs non-resistant parental cell line; FIG. 16A
Experimental: as §1

[4] = system: IRF reporter in THP1-Dual cells; test: IRF reporter activity in THP1-Dual monocytes co-cultured with treated A20 cells; format: cell-based, human; details: A20 cells treated 24 hours, co-culture 24 hours; vs DMSO; FIG. 6C
Experimental: A20 B-cell leukemia cells were treated with either control (DMSO) or various doses of RSL3, for 24 hours prior to co-culture with THP1-Dual cells for an additional 24 hours. RSL3 was purchased from Selleckchem (Houston, Tex.) and dissolved in DMSO. Subsequently, the THP1 supernatants were assessed for NFKB or IRF reporter activity. A20 cells were acquired from ATCC and THP1-Dual cells acquired from InvivoGen (San Diego, Calif.). Both cell types were cultured in 96-well plates for the duration of the assay. 50,000 A20 cells were plated 24 hours prior to dosing with RSL3, with a final DMSO concentration of 0.5%. 24 hours post-treatment, THP1-Dual cells (25,000 cells/well) were added to the A20 cells. 24 hours later, 30 μl of supernatant was mixed with either 200 μl QuantiBlue (InvivoGen, San Diego, Calif.) or 50 μl QuantiLuc and absorbance or luminescence was recorded on a Molecular Devices plate reader.

[5] = system: NFKB reporter in THP1-Dual cells; test: NFKB reporter activity in THP1-Dual monocytes co-cultured with treated Caki-1 cells; format: cell-based, human
Experimental: Caki-1 renal cell carcinoma cells were treated with either control (DMSO) or various doses of Erastin, for 24 hours prior to co-culture with THP1-Dual cells for an additional 24 hours. Erastin was purchased from Selleckchem (Houston, Tex.) and dissolved in DMSO. Subsequently, the THP1 supernatants were assessed for NFKB or IRF reporter activity. Caki-1 cells were acquired from ATCC and THP1-Dual cells acquired from InvivoGen (San Diego, Calif.). Both cell types were cultured in 96-well plates for the duration of the assay. 7,500 Caki-1 cells were plated 24 hours prior to dosing with Erastin, with a final DMSO concentration of 0.5%. 24 hours post-treatment, THP1-Dual cells (25,000 cells/well) were added to the Caki-1 cells. 24 hours later, 30 μl of supernatant was mixed with either 200 μl QuantiBlue (InvivoGen) or 50 μl QuantiLuc and absorbance or luminescence was recorded on a Molecular Devices plate reader. Caki-1 renal cell carcinoma cells were treated with either control (DMSO) or various doses of RSL3, for 24 hours prior to co-culture with THP1-Dual cells for an additional 24 hours. RSL3 was purchased from Selleckchem and dissolved in DMSO. Subsequently, the THP1 supernatants were assessed for NFKB or IRF reporter activity. Caki-1 cells were acquired from ATCC and THP1-Dual cells acquired from InvivoGen (San Diego, Calif.). Both cell types were cultured in 96-well plates for the duration of the assay. 7,500 Caki-1 cells were plated 24 hours prior to dosing with RSL3, with a final DMSO concentration of 0.5%. 24 hours post-treatment, THP1-Dual cells (25,000 cells/well) were added to the Caki-1 cells. 24 hours later, 30 μl of supernatant was mixed with either 200 μl QuantiBlue (InvivoGen, San Diego, Calif.) or 50 μl QuantiLuc and absorbance or luminescence was recorded on a Molecular Devices plate reader. […] Subsequently, the THP1 supernatant was assessed for NFKB reporter activity. Caki-1 cells were acquired from ATCC and THP1-Dual cells acquired from InvivoGen (San Diego, Calif.). Both cell types were cultured in 96-well plates for the duration of the assay.

[6] = system: NFKB reporter in THP1-Dual cells; test: NFKB reporter activity in THP1-Dual monocytes co-cultured with treated Jurkat cells; format: cell-based, human; details: Jurkat cells treated 24 hours, co-culture 24 hours; vs DMSO; FIG. 5B
Experimental: Jurkat T cell leukemia cells were treated with either control (DMSO) or various doses of RSL3, for 24 hours prior to co-culture with THP1-Dual cells for an additional 24 hours. RSL3 was purchased from Selleckchem (Houston, Tex.) and dissolved in DMSO. Subsequently, the THP1 supernatants were assessed for NFKB or IRF reporter activity.
Jurkat cells were acquired from ATCC and THP1-Dual cells acquired from InvivoGen (San Diego, Calif.). Both cell types were cultured in 96-well plates for the duration of the assay. 100,000 Jurkat cells were plated 24 hours prior to dosing with RSL3, with a final DMSO concentration of 0.5%. 24 hours post-treatment, THP1-Dual cells (25,000 cells/well) were added to the Jurkat cells. 24 hours later, 30 μl of supernatant was mixed with either 200 μl QuantiBlue (InvivoGen, San Diego, Calif.) or 50 μl QuantiLuc and absorbance or luminescence was recorded on a Molecular Devices plate reader.

`COC(=O)c1ccc([C@H]2c3[nH]c4ccccc4c3C[C@H](C(=O)OC)N2C(=O)CCl)cc1` [RSL3] was tested, and the “viability of A20 lymphoma cells, dose dependence” value ([1]; GPX4 inhibitor 0.002-10 μM, FIG. 10A, 11A, 12A) was “decreased viability of the cells in a dose dependent manner”, the “viability of A20 B cell leukemia cells” value ([1]; various doses, FIG. 6A) was “negatively affected the viability” and the “viability of Jurkat T cell leukemia cells” value [2] was “negatively affected the viability”. The “viability of Caki-1 renal carcinoma cells, dose dependence” value ([3]; GPX4 inhibitor various doses, FIG. 13A, 14A) was “decreased viability of the cells in a dose dependent manner”, the “viability of Caki-1 cells” value ([3]; various doses, FIG. 3A, 4A) was “negatively affected the viability” and the “sensitivity of BT-474 clone 5 cells to RSL3-induced ferroptosis (cellular viability)” value (BT-474 Clone 5 cells) was “sensitive to RSL3-induced ferroptosis; also recorded: more sensitive to RSL3-induced ferroptosis than the corresponding non-resistant parental cell line”. For the same compound, the “sensitivity of A375-VR cells to RSL3-induced ferroptosis (cellular viability)” value (A375-VR cells) was “sensitive to RSL3-induced ferroptosis; also recorded: more sensitive to RSL3-induced ferroptosis than the corresponding non-resistant parental cell line”, the “sensitivity of A375-DR cells to RSL3-induced ferroptosis (cellular viability)” value (A375-DR cells) was “sensitive to RSL3-induced ferroptosis; also recorded: more sensitive to RSL3-induced ferroptosis than the corresponding non-resistant parental cell line” and the “IRF signaling in THP1 monocytes” value [4] was “elicited”. For the same compound, the “NFKB signaling in THP1 monocytes” value ([5]; Caki-1 cells treated 24 hours, co-culture 24 hours, vs DMSO, FIG. 3B, 4B) was “elicited NFKB signaling in THP1 monocytes”, the “NFKB activity in THP1 cells, dose dependence” value ([5]; Caki-1 cells treated with RSL3 or ML162, FIG. 13B, 14B) was “increased NFKB activity in THP1 cells in a dose dependent manner” and the “NFKB signaling in THP1 monocytes” value [6] was “elicited NFKB signaling in THP1 monocytes”.
